# Assay results: ChEMBL document CHEMBL4052806, “Chemical constituents from the rare mushroom Calvatia nipponica inhibit the promotion of angiogenesis in HUVECs” (Bioorg Med Chem Lett, 2017)
# Calls of active or inactive are those of the source. No cut-off for these calls is given here.
# Assays:
# HUVEC [1] = assay: Cytotoxicity against HUVEC assessed as reduction in cell viability after 24 hrs by MTT assay; format: cell-based; conditions: human
# HUVEC [2] = assay: Cytotoxicity against HUVEC assessed as reduction in cell viability up to 12.5 ug/ml after 24 hrs by MTT assay; format: cell-based; conditions: human
# HUVEC [3] = assay: Cytotoxicity against HUVEC assessed as reduction in cell viability at 100 ug/ml after 24 hrs by MTT assay relative to control; format: cell-based; conditions: human
# HUVEC [4] = assay: Antiangiogenic activity in HUVEC assessed as inhibition of tube formation on matrigel at 12.5 ug/ml after 24 hrs by Mayer's hematoxylin staining based light microscopy relative to control; format: functional; conditions: Homo sapiens
# HUVEC [5] = assay: Down regulation of VEGF expression in HUVEC at 6.25 ug/ml after 24 hrs by Western blot analysis relative to control; format: functional, Homo sapiens
# HUVEC [6] = assay: Down regulation of VEGF expression in HUVEC at 12.5 ug/ml after 24 hrs by Western blot analysis relative to control; format: functional, Homo sapiens
# [7] = biological target: T1, MAP kinase p38 (Homo sapiens) (UniProt O15264+Q15759+Q16539+P53778); assay: Inhibition of p38 phosphorylation in HUVEC at 6.25 ug/ml after 24 hrs by Western blot analysis relative to control
# [8] = biological target: T1, MAP kinase p38 (Homo sapiens); assay: Inhibition of p38 phosphorylation in HUVEC at 12.5 ug/ml after 24 hrs by Western blot analysis relative to control
# Homo sapiens [9] = species: Homo sapiens; assay: Inhibition of ERK phosphorylation in HUVEC at 6.25 ug/ml after 24 hrs by Western blot analysis relative to control
# Homo sapiens [10] = species: Homo sapiens; assay: Inhibition of ERK phosphorylation in HUVEC at 12.5 ug/ml after 24 hrs by Western blot analysis relative to control
# HUVEC [11] = assay: Antiangiogenic activity in HUVEC assessed as inhibition of tube formation on matrigel after 24 hrs by Mayer's hematoxylin staining based light microscopy; format: functional, cell-based; conditions: Homo sapiens
fold change (FC) [7],fold change (FC) [8],fold change (FC) (Homo sapiens [9]),fold change (FC) (Homo sapiens [10]),Compound,Activity (HUVEC [1]),Activity (HUVEC [2]),Activity (HUVEC [3]),inhibition at 12.5 µg/mL (HUVEC [4]),fold change (FC) (HUVEC [5]),fold change (FC) (HUVEC [6]),inhibition (HUVEC [11])
0.87,0.71,1.05,0.9,O=C1NCc2c(O)cc(O)cc21,Dose-dependent effect,Non-Toxic,23.13%,32.6%,0.9,0.72,–
–,–,–,–,CNc1ccccc1C(=O)O,Dose-dependent effect,Non-Toxic,24.55%,–,–,–,inactive
–,–,–,–,O=C1OCc2cc(O)cc(O)c21,–,–,–,–,–,–,inactive
–,–,–,–,NC(=O)c1cccnc1 [NIACINAMIDE],Dose-dependent effect,Non-Toxic,6.07%,11.3%,–,–,–
–,–,–,–,OCc1cc(O)cc(O)c1,Dose-dependent effect,Non-Toxic,25.15%,–,–,–,inactive
–,–,–,–,CC(=O)Nc1ccc(O)cc1 [ACETAMINOPHEN],Dose-dependent effect,Non-Toxic,25.93%,10.5%,–,–,–
–,–,–,–,CN(C)c1ccccc1C(=O)O,Dose-dependent effect,Non-Toxic,25.82%,–,–,–,inactive
